# Read-outs that look alike come from different tables or passages of the source.
# Tests used:
# Format in all cases: biochemical
# kinases [1] = target: kinases (Homo sapiens, UniProt O15075); settings: DCAMKL1 (DCLK1) FRET-Z-Lyte SP
# kinases [2] = target: kinases (Homo sapiens, UniProt O60285); settings: NUAK1 (ARK5) FRET-Adapta SP; Test Conc(μM):ATP Conc(μM) 1:25
# kinases [3] = target: kinases (Homo sapiens, UniProt O75914); settings: PAK3 FRET-Z-Lyte SP; Test Conc(μM):ATP Conc(μM) 1:100
# kinases [4] = target: kinases (Homo sapiens, UniProt O76039); settings: CDKL5 FRET-Z-Lyte SP; Test Conc(μM):ATP Conc(μM) 1:500
# kinases [5] = target: kinases (Homo sapiens, UniProt O95819); settings: MAP4K4 (HGK) FRET-Z-Lyte SP; Test Conc(μM):ATP Conc(μM) 1:10
# kinases [6] = target: kinases (Homo sapiens, UniProt P00519); settings: ABL1 Hu Phos FRET-Z-Lyte SP; Test Conc(μM):ATP Conc(μM) 1:10
# kinases [7] = target: kinases (Homo sapiens, UniProt P10721); settings: KIT *Mn* FRET-Z-Lyte SP
# kinases [8] = target: kinases (Homo sapiens, UniProt P16591); settings: FER FRET-Z-Lyte SP; Test Conc(μM):ATP Conc(μM) 1:25
# kinases [9] = target: kinases (Homo sapiens, UniProt P21802); settings: FGFR2 *Mn* FRET-Z-Lyte SP; Test Conc(μM):ATP Conc(μM) 1:5
# kinases [10] = target: kinases (Homo sapiens, UniProt P22455); settings: FGFR4 *Mn* FRET-Z-Lyte SP; Test Conc(μM):ATP Conc(μM) 1:150
# kinases [11] = target: kinases (Homo sapiens, UniProt P22694); settings: PRKACB FRET-Lantha SP; Test Conc(μM) 1
# kinases [12] = target: kinases (Homo sapiens, UniProt P23458); settings: JAK1 FRET-Z-Lyte SP; Test Conc(μM):ATP Conc(μM) 1:75
# kinases [13] = target: kinases (Homo sapiens, UniProt P30291); settings: WEE1 FRET-Lantha SP; Test Conc(μM) 1
# kinases [14] = target: kinases (Homo sapiens, UniProt P36507)
# kinases [15] = target: kinases (Homo sapiens, UniProt P42356); settings: PI4KA FRET-Adapta SP; Test Conc(μM):ATP Conc(μM) 1:10
# kinases [16] = target: kinases (Homo sapiens, UniProt P51957); settings: NEK4 FRET-Z-Lyte SP; Test Conc(μM):ATP Conc(μM) 1:50
# kinases [17] = target: kinases (Homo sapiens, UniProt P80192); settings: MAP3K9 (MLK1) FRET-Z-Lyte SP; Test Conc(μM):ATP Conc(μM) 1:75
# kinases [18] = target: kinases (Homo sapiens, UniProt Q02779); settings: MAP3K10 (MLK2) FRET-Lantha SP; Test Conc(μM) 1
# kinases [19] = target: kinases (Homo sapiens, UniProt Q04912); settings: MST1R (RON) FRET-Z-Lyte SP; Test Conc(μM):ATP Conc(μM) 1:10
# kinases [20] = target: kinases (Homo sapiens, UniProt Q13131)
# kinases [21] = target: kinases (Homo sapiens, UniProt Q13705); settings: ACVR2B FRET-Lantha SP; Test Conc(μM) 1
# kinases [22] = target: kinases (Homo sapiens, UniProt Q15418); settings: RPS6KA1 (RSK1) FRET-Z-Lyte SP; Test Conc(μM):ATP Conc(μM) 1:5
# kinases [23] = target: kinases (Homo sapiens, UniProt Q16288); settings: NTRK3 (TRKC) FRET-Z-Lyte SP; Test Conc(μM):ATP Conc(μM) 1:50
# kinases [24] = target: kinases (Homo sapiens, UniProt Q8NI60); settings: ADCK3 FRET-Lantha SP; Test Conc(μM) 1
# kinases [25] = target: kinases (Homo sapiens, UniProt Q9BUB5); settings: MKNK1 (MNK1) *Mn* Z-Lyte SP; Test Conc(μM):ATP Conc(μM) 1:100
# kinases [26] = target: kinases (Homo sapiens, UniProt Q9H422); settings: HIPK3 (YAK1) FRET-Z-Lyte SP; Test Conc(μM):ATP Conc(μM) 1:25
# kinases [27] = target: kinases (Homo sapiens, UniProt Q9NYA1); settings: SPHK1 FRET-Adapta SP; Test Conc(μM):ATP Conc(μM) 1:10
# [28] = Test Conc(μM):ATP Conc(μM) 0.25
# [29] = MAP2K2 (MEK2) FRET-Lantha SP, Test Conc(μM) 1
# [30] = MAP2K2 (MEK2)Cascade Z-Lyte SP, Test Conc(μM):ATP Conc(μM) 1:100
# [31] = AMPK (A1/B1/G2) FRET-Lantha SP, Test Conc(μM) 1
# [32] = AMPK (A1/B1/G3) FRET-Lantha SP, Test Conc(μM) 1
# [33] = AMPK (A1/B2/G1) FRET-Lantha SP, Test Conc(μM) 1
# [34] = AMPK A1/B1/G1 FRET-Z-lyte SP, Test Conc(μM):ATP Conc(μM) 1:50
# [35] = AMPK A1/B2/G2 FRET-Z-Lyte SP, Test Conc(μM):ATP Conc(μM) 1:10
# [36] = AMPK A1/B2/G3 FRET-Z-Lyte SP, Test Conc(μM):ATP Conc(μM) 1:10
# [37] = Test Conc(μM):ATP Conc(μM) 1:300
# Chain of kinases (Homo sapiens, UniProt Q13131) (Q13131 whole entry): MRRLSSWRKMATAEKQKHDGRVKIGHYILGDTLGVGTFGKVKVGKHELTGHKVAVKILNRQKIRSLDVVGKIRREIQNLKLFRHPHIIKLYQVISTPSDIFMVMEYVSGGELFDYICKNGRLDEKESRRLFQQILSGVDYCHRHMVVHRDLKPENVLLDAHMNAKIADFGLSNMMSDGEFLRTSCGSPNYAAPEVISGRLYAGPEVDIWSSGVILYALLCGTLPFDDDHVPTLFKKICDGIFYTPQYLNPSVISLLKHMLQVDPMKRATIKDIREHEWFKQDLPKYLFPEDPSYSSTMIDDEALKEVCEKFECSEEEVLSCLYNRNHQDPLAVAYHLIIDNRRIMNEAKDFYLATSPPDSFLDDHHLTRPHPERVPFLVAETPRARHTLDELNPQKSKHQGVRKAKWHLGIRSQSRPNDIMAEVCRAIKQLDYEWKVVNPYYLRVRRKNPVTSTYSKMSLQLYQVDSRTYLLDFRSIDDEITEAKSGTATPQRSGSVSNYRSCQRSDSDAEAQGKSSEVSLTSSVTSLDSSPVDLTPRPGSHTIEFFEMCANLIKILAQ
# Chain of kinases (Homo sapiens, UniProt P36507) (P36507 whole entry): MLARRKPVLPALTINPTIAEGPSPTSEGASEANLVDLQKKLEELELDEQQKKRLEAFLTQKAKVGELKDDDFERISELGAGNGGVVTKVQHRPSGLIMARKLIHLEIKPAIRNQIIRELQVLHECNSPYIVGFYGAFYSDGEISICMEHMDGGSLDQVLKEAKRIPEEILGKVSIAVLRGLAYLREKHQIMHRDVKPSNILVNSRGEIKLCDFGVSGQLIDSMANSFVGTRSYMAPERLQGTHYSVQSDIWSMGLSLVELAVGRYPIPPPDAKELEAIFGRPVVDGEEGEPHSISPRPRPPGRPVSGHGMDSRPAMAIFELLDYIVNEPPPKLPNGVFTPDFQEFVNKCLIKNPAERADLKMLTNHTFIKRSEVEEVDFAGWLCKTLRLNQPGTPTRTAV
# Chain of kinases (Homo sapiens, UniProt P22455) (P22455 22-802): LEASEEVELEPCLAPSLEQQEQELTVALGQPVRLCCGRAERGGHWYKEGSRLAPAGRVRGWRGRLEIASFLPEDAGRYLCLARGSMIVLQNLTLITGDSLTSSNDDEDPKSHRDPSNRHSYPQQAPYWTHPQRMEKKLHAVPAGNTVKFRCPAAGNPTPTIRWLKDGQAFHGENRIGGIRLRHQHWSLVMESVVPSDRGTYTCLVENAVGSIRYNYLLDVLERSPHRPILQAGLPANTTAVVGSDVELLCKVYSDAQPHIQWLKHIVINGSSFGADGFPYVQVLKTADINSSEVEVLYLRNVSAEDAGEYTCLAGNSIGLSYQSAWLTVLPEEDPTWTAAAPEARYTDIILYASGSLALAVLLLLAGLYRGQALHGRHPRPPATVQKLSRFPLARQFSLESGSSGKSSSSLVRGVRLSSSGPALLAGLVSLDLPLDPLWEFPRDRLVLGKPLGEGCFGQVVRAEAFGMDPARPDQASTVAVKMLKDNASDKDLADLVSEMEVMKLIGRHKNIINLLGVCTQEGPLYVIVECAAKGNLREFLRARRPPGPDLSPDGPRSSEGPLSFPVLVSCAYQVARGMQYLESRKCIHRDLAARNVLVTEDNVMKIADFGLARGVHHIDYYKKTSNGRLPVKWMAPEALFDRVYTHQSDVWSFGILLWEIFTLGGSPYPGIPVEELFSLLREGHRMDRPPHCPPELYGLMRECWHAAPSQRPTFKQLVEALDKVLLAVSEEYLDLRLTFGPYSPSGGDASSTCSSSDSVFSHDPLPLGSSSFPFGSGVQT
# Chain of kinases (Homo sapiens, UniProt P80192) (P80192 whole entry): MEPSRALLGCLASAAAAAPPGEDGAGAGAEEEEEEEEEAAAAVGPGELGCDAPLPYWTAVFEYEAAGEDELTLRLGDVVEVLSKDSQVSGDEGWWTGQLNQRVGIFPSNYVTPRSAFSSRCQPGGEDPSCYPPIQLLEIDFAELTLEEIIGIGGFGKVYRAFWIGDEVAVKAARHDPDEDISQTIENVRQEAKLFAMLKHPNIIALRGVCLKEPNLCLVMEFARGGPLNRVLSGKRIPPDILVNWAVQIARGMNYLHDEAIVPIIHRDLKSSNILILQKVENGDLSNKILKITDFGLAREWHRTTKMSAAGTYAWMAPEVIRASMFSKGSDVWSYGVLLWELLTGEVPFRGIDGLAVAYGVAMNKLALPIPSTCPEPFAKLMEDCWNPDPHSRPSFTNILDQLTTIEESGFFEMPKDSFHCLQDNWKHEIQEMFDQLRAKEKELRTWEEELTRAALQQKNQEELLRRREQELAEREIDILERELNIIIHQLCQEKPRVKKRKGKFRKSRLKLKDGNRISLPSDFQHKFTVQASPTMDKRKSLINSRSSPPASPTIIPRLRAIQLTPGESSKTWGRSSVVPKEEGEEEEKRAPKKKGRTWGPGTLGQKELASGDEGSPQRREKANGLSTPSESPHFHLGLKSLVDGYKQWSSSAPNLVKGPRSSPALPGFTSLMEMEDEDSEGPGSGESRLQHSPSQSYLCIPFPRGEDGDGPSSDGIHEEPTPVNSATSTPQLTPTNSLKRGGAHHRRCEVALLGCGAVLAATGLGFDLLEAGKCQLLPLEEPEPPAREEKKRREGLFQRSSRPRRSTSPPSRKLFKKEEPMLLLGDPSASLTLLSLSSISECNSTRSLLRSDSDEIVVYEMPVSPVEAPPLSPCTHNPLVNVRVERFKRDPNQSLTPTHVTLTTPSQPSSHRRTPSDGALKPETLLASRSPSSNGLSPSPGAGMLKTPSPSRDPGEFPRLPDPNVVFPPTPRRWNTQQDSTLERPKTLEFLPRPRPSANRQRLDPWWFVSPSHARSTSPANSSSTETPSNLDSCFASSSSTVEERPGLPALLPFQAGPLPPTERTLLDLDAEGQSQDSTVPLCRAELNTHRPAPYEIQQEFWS
# Chain of kinases (Homo sapiens, UniProt O60285) (O60285 whole entry): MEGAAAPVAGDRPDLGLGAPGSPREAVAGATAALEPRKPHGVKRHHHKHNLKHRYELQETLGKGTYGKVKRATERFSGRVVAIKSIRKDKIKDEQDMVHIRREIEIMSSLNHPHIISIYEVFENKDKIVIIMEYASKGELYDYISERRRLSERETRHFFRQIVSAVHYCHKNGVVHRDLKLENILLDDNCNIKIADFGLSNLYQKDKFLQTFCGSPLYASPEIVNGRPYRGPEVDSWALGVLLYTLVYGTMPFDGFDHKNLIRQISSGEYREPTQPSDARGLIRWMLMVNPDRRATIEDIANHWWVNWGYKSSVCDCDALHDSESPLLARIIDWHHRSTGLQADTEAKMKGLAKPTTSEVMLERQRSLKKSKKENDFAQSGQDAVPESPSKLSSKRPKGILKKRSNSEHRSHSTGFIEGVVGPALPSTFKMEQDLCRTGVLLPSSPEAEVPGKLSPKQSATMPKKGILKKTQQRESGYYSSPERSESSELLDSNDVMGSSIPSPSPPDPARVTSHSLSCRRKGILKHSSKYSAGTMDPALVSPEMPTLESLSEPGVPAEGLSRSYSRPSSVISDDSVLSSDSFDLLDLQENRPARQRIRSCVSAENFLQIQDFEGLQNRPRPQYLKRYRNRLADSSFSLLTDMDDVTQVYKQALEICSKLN
# Chain of kinases (Homo sapiens, UniProt Q15418) (Q15418 whole entry): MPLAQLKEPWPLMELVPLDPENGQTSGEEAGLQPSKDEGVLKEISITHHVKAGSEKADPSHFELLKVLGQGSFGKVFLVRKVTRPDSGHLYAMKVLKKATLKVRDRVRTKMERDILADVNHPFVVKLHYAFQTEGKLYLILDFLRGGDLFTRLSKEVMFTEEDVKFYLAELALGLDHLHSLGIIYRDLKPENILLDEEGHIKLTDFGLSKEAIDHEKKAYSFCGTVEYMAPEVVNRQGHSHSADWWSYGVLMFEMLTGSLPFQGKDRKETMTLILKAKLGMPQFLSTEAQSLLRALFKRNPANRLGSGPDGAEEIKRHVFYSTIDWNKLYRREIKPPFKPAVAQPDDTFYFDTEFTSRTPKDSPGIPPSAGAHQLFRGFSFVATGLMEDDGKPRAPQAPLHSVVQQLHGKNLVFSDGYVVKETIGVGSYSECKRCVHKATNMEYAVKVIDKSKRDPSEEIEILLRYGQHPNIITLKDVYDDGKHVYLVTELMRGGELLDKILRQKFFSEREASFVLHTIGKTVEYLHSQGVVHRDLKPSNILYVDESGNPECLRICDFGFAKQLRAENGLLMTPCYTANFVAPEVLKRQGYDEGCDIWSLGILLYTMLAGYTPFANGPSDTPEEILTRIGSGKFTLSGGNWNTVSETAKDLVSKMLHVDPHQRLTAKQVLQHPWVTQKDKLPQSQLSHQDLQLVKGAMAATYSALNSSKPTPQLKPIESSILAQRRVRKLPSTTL
# Chain of kinases (Homo sapiens, UniProt P21802) (P21802 22-821): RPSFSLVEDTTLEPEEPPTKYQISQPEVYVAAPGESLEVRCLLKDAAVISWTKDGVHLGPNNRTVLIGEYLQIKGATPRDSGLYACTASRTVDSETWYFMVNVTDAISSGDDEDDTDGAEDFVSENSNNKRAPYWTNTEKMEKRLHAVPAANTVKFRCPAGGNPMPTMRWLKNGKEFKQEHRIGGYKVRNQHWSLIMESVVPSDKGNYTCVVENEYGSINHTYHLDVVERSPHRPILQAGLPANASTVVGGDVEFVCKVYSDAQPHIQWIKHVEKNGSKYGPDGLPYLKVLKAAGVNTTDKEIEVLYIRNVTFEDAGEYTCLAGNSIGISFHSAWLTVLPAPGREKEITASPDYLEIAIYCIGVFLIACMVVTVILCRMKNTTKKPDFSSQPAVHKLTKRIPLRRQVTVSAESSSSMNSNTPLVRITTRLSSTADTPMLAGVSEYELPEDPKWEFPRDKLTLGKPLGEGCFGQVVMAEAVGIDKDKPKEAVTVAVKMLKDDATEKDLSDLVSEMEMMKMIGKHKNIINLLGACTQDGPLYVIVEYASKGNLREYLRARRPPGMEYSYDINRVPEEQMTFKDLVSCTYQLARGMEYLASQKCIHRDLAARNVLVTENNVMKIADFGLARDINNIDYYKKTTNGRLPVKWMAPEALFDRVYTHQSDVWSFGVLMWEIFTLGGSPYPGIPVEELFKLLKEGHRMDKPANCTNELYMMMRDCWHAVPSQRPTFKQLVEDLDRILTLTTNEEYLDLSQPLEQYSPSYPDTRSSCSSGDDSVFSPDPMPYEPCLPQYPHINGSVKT
SMILES,Mean Inhib (%) (kinases [2]),Mean Inhib (%) (kinases [3]),Mean Inhib (%) (kinases [4]),Mean Inhib (%) (kinases [5]),Mean Inhib (%) (kinases [6]),Mean Inhib (%) (kinases [8]),Mean Inhib (%) (kinases [9]),Mean Inhib (%) (kinases [10]),Mean Inhib (%) (kinases [11]),Mean Inhib (%) (kinases [12]),Mean Inhib (%) (kinases [13]),Mean Inhib (%) (kinases [14]; [29]),Mean Inhib (%) (kinases [14]; [30]),Mean Inhib (%) (kinases [15]),Mean Inhib (%) (kinases [16]),Mean Inhib (%) (kinases [17]),Mean Inhib (%) (kinases [18]),Mean Inhib (%) (kinases [19]),Mean Inhib (%) (kinases [20]; [31]),Mean Inhib (%) (kinases [20]; [32]),also measured
Cc1cc(Oc2ccnc(Nc3ccc(S(N)(=O)=O)cc3)c2)c(-c2ccccn2)nc1C [compound 65],−3.5,23.3,9.8,12.0,85.2,5.0,6.0,−0.9,10.9,4.3,1.2,−0.2,10.4,−6.0,3.6,3.4,2.7,5.3,1.3,−1.2,Mean Inhib (%) (kinases [1]; [28]): 11.8%; Mean Inhib (%) (kinases [7]; [28]): 8.8%; Mean Inhib (%) (kinases [20]; [33]): 2.3%; Mean Inhib (%) (kinases [20]; [34]): −0.6%; Mean Inhib (%) (kinases [20]; [35]): −0.5%; Mean Inhib (%) (kinases [20]; [36]): −2.4%; Mean Inhib (%) (kinases [21]): 95.6%; Mean Inhib (%) (kinases [22]): 5.3%; Mean Inhib (%) (kinases [23]): 2.7%; Mean Inhib (%) (kinases [24]): −3.0%; Mean Inhib (%) (kinases [25]): 1.5%; Mean Inhib (%) (kinases [26]): −0.3%; Mean Inhib (%) (kinases [27]): −0.7%
Cc1ccc(NC(=O)c2ccnc(N3CCOCC3)c2)cc1Nc1ccnc(N2CC(C)OC(C)C2)n1 (stereo not drawn) [compound 3],−5.6,−0.3,13.9,16.9,2.8,4.8,15.8,14.8,2.3,−1.9,4.6,1.7,−1.0,4.3,14.2,1.3,0.6,−8.2,5.6,−10.3,Mean Inhib (%) (kinases [1]; [37]): 31.0%; Mean Inhib (%) (kinases [7]; [37]): 0.0%; Mean Inhib (%) (kinases [20]; [33]): 0.0%; Mean Inhib (%) (kinases [20]; [34]): 0.3%; Mean Inhib (%) (kinases [20]; [35]): 12.2%; Mean Inhib (%) (kinases [20]; [36]): 20.8%; Mean Inhib (%) (kinases [21]): −2.1%; Mean Inhib (%) (kinases [22]): 14.8%; Mean Inhib (%) (kinases [23]): 3.5%; Mean Inhib (%) (kinases [24]): −1.6%; Mean Inhib (%) (kinases [25]): 5.3%; Mean Inhib (%) (kinases [26]): 0.6%; Mean Inhib (%) (kinases [27]): 8.0%

# Source: patent US20220187282A1, “CARDIOMYOCYTE PROLIFERATION” (The Council of the Queensland Institute of Medical Research, priority 2019, published 2022)
